System: PA/PB1 HEK293T (Teton) cell line
Test: Dox-controlled inducible PA/PB1 expression, luciferase activity and Western blotting
Assay type: cell-based
Details: Dox 300 ng/mL, 16 h, PA/PB1 HEK293T (Teton) cells
Description: To detect the influence of Doxycycline (Dox) (purchased from Sigma) on controlled inducible PA/PB1 expression, 100,000 PA/PB1 HEK293T (Teton) cells and 300 μL DMEM complete medium were plated in each well of a 48 well plate. After 24 h, Dox was added at concentrations of 0, 10, 30, 100, 300 ng/mL respectively. After 16 h, culture medium in supernatant was removed, and lysis was performed on ice for 10 min using 80 μL renilla luciferase lysate (purchased from Promega, E2820), lysate was mixed by pipetting, 50 μL cell lysate was transferred into a plate for luciferase detection (purchased from PE), 20 μL renilla luciferase substrate (purchased from Promega, E2820) was added into each well, and luciferase activity was detected by a microplate reader (purchased from Bio-Tek, SynergyH1). The remaining 30 μL lysate was used for immune blotting (Western Blotting), the primary antibody used was Anti-Gluc (purchased from NEB), the secondary antibody used was HRP-conjugated Donkey Anti-Rabbit (purchased from Jackson), and expression of PA/PB1 with Gluc fusion tag could be detected by a scanner (purchased from Bio-rad).
When Dox was not added into the PA/PB1 HEK293T (Teton) cell line, luciferase activity of PA/PB1 interaction was the background. […] When Dox was added at a concentration of 300 ng/mL, the difference between its signal value and the background signal value was up to 200 times.

C[C@H]1c2cccc(O)c2C(=O)C2=C(O)[C@]3(O)C(=O)C(C(N)=O)=C(O)[C@@H](N(C)C)[C@@H]3[C@@H](O)[C@@H]21 [Dox, Doxycycline]
difference between signal value and background signal value (luciferase activity of PA/PB1 interaction): up to 200 times

— patent publication US10526634B2, “Cell line for screening influenza virus polymerase assembly inhibitor and construction method thereof” (Suzhou Institute of Systems Medicine, priority 2015, dated 2020)
